Laboratory results from BindingDB's records for patent US12178809 (Boehringer Ingelheim International, 2024).

Legend:
[1] = biological target: T1, Amine oxidase [copper-containing] 2 (Homo sapiens, UniProt O75106); assay: AOC2 Biochemical Assay
T1 sequence (O75106 whole entry): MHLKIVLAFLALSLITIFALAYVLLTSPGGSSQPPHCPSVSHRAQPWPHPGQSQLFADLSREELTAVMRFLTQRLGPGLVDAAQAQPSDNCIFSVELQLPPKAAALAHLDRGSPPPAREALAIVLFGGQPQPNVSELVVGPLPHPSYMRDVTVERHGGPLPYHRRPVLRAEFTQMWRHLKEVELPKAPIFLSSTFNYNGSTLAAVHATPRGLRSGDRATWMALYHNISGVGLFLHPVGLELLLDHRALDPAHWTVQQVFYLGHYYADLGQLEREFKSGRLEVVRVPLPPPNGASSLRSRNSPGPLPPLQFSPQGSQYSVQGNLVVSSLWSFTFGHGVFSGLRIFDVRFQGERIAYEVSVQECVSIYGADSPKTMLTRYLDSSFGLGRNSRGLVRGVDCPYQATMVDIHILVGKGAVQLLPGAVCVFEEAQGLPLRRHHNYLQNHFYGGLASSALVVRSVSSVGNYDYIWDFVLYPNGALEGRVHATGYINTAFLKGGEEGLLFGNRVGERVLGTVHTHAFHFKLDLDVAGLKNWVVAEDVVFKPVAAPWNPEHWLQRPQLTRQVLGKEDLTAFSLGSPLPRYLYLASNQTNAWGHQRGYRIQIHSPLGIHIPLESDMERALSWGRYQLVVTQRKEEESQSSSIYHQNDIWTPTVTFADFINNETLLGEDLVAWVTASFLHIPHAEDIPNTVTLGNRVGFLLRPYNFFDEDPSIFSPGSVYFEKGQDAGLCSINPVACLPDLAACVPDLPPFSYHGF
Protocol: Cells are cultured for 3 days in EMEM culture medium containing 10% FCS (#04-00-1A, Biological Industries). After washing twice with ice cold PBS, cells are lysed by mechanic homogenation and cleared supernatants are shock frozen in liquid nitrogen and stored at −80° C.For the determination of AOC2 enzymatic activity cell lysates are thawed on ice and 1:1 diluted with reaction buffer. An Aliquot of 45 μL is added to the compound dilution and incubated for 30 min at 37° C.

[2] = biological target: T2, Amine oxidase [copper-containing] 3 (Homo sapiens, UniProt Q16853); assay: AOC3 Biochemical Assay
T2 sequence (Q16853 whole entry): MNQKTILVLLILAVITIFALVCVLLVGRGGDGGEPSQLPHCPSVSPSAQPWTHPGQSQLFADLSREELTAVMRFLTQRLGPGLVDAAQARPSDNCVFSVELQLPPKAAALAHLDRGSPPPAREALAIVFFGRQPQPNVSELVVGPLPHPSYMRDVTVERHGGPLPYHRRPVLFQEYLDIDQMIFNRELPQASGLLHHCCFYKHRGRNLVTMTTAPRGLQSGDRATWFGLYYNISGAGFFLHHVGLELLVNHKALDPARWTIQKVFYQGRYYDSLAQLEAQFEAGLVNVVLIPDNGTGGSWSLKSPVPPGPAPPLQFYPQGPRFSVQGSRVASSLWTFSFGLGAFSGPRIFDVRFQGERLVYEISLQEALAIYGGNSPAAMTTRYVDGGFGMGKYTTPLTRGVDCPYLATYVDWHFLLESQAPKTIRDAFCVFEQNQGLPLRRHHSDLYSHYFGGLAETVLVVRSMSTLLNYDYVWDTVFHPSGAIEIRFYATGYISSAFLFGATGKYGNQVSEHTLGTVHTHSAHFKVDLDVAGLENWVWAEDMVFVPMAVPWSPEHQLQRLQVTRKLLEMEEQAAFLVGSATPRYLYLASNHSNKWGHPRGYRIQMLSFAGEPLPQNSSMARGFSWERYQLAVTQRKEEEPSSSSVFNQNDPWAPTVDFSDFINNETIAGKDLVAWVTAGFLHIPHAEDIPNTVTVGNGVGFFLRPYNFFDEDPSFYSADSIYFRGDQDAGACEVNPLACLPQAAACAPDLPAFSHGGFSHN
Protocol: Recombinant CHO cells, overexpressing the human (1500 cells/well), mouse (1000 cells/well) or rat (500 cells/well) AOC3 enzyme are diluted in reaction buffer and added in a volume of 15 μL to the wells. After incubation for 20 minutes at 37° C., 2 μL of MAO substrate (dissolved in DMSO at 16 mM, adjusted to assay concentration in reaction buffer to a final assay concentration of 20 μM) is added and further incubated for 60 minutes at 37° C. The turnover of the substrate is determined by the addition of 20 μL of the detection-mix which was generated by the addition of reconstitution buffer with esterase (PROMEGA, #V1402) to the luciferine detection reagent (PROMEGA, #V1402).

[3] = biological target: T3, Diamine oxidase [copper-containing] (Homo sapiens, UniProt P19801); assay: AOC1 Biochemical Assay
T3 sequence (P19801 whole entry): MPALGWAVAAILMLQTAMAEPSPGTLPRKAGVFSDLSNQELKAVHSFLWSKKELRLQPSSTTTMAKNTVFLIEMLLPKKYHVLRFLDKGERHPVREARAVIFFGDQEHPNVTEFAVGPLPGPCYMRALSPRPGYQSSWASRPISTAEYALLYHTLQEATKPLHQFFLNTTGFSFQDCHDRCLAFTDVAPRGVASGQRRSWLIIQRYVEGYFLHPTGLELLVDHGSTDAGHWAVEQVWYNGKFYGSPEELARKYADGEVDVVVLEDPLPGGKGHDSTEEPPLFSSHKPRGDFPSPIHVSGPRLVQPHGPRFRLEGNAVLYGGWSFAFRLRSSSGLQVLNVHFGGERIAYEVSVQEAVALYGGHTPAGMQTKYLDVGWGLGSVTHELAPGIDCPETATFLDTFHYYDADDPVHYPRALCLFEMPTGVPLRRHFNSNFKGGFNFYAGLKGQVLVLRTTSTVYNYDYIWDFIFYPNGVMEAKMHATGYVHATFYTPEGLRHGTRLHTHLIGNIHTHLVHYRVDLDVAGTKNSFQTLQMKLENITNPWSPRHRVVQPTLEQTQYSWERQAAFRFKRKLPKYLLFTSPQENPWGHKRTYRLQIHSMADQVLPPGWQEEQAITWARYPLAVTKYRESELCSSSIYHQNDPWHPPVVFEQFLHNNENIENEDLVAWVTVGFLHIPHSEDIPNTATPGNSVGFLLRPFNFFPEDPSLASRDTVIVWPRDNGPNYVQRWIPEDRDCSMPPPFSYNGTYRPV
Protocol: An aliquot of 3 μL of the compound dilution is added to a 384 well plate (Optiplate, PS, flat bottom F, black, PERKIN ELMER, #6007270) in a DMSO concentration of 6.6%.An AOC1 enzyme aliquot (#8297-AO-010, R&D Systems) is thawed on ice, diluted in reaction buffer and added in a volume of 7 μL to the wells to give a final assay concentration of 1 ng/well. After incubation of inhibitor and enzyme for 30 minutes at 37° C., the enzymatic reaction is started with the addition of 10 μL of Amplex Red reaction mix (final assay concentration: 100 mM sodiumphosphate, 120 μM Amplex Red reagent (#A22177 Molecular Probes), 1.5 U/mL Horseradish Peroxidase (#P8375 Sigma-Aldrich), 200 μM putrescine (#P7505 Sigma-Alrdich), 0.05% Pluronic F-127 (#P3000MP Sigma-Aldrich), pH 7.4, 37° C.).After an incubation for 30 minutes at 37° C. the turnover of the substrate is determined directly (or after the addition of an excess of an amine-oxidase inhibitor) with a fluorescence reader (Ex 540 nm/Em 590 nm) like Envision 2104 Multilabel Reader (PERKIN ELMER).

CC(C)(O)NC(=O)[C@H]1CCN(S(=O)(=O)c2ccc(OC/C(=C/F)CN)nc2)C1 [US12178809, Example 05]
IC50 [1]: 629 nM | IC50 [2]: 73 nM | IC50 [3]: > 50000 nM
